TGI and GI50 data for 39 compounds are collected here from PubChem BioAssay (NCI).

Test systems include DMS 273 small cell lung; HOP-18 NSCLC; KM20L2 colon; RXF-631 renal; XF 498 CNS; MDA-N; NCI/ADR-RES ovarian; DU-145 prostate; HS 578T breast.
Test in all cases: NCI-60 cell line screen, 48 h

Several values for one entry are separate records, joined by “and”; a condition that tells them apart may be missing. Identical values can stand only once.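 In this assay, cells in 96-well plates receive the compound at five concentrations for 48 hours. Endpoints are linearly interpolated between the surrounding concentrations. GI50: concentration for 50% inhibition of growth. TGI is the concentration that stops growth completely.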

Regarding `CC(=O)NNc1ncc(C(=O)/C=C/c2ccccc2C)s1`, the TGI in the assay with DMS 273 small cell lung, in the assay with HOP-18 NSCLC, in the assay with KM20L2 colon and in the assay with RXF-631 renal was > 100 µM in each case.
As for `OCC1CC2C=CCC(C2)C1` (stereo not drawn), the TGI with DMS 273 small cell lung, in the assay with HOP-18 NSCLC, in the assay on KM20L2 colon and with XF 498 CNS was > 100 µM in each case.
In the case of `O=[N+]([O-])c1cc(I)cc(/C=N/NS(=O)(=O)c2ccc(F)cc2)c1O`, the TGI with DMS 273 small cell lung was 48.8 µM; in the assay with HOP-18 NSCLC it was 53.2 µM; with KM20L2 colon it was > 100 µM; in the assay on RXF-631 renal, 57.9 µM.
In the case of `COC(=O)C(/C(=N/N)C(=O)Nc1cc(Cl)ccc1Cl)c1nc2ccc([N+](=O)[O-])cc2[nH]c1=O` (stereo not drawn), the TGI in the assay on DMS 273 small cell lung, in the assay with KM20L2 colon and with XF 498 CNS was > 100 µM each time.
With `CN1C(c2ccccc2)CC(=NO)CC1c1ccccc1` (stereo not drawn), the TGI in the assay with DMS 273 small cell lung, in the assay with KM20L2 colon and in the assay with RXF-631 renal was > 100 µM in each case. Moreover, the results for the GI50 in the assay with MDA-N and in the assay on NCI/ADR-RES ovarian were 76 µM and 48.8 µM, respectively.
As to `CSc1ccc(Cc2cc(C(C)(C)C)cc(C(C)(C)C)c2O)cc1`, the TGI in the assay with DMS 273 small cell lung was 26.7 µM; in the assay with HOP-18 NSCLC it was 33.8 µM; in the assay with KM20L2 colon it was 28.2 µM; with RXF-631 renal, 29.4 µM; with XF 498 CNS, 31.8 µM.
For `O=C(N/C(=C\c1cccc([N+](=O)[O-])c1)c1nc2c3c(ccc2[nH]1)C(=O)c1ccccc1C3=O)c1ccccc1`, the TGI in the assay on HOP-18 NSCLC, in the assay with KM20L2 colon and in the assay with XF 498 CNS was > 100 µM throughout.
For the compound `OC(c1cc2ccccc2[nH]1)C(O)(c1cc2ccccc2[nH]1)c1cc2ccccc2[nH]1` (stereo not drawn), the TGI is 48.8 µM in the assay with DMS 273 small cell lung, > 245 µM in the assay with KM20L2 colon and 58.3 µM in the assay with RXF-631 renal.
With `CON1C(=O)C2(CCCCC2)C(=O)C12C=CC(C)CC2` (stereo not drawn), the TGI with DMS 273 small cell lung, in the assay with KM20L2 colon, in the assay on RXF-631 renal and in the assay on XF 498 CNS was > 100 µM each time.
For `COC(=O)CCCCCOS(=O)(=O)c1ccc(C)cc1`, the TGI in the assay with DMS 273 small cell lung, in the assay on HOP-18 NSCLC, in the assay with KM20L2 colon, in the assay with RXF-631 renal and with XF 498 CNS was > 100 µM throughout.
`Cc1ccc(NC(=O)CCc2nnc3s/c(=C\C=C\c4ccccc4)c(=O)n23)cc1`: the TGI in the assay with DMS 273 small cell lung, in the assay with DU-145 prostate, in the assay with HOP-18 NSCLC, in the assay with HS 578T breast, in the assay with KM20L2 colon and with MDA-N was > 100 µM throughout. In addition, the TGI in the assay on NCI/ADR-RES ovarian is > 78.6 µM; in the assay with RXF-631 renal, > 100 µM; in the assay on XF 498 CNS, > 100 µM.
In the case of `CC1=NC(C)=C(/C(C)=N/NC(=O)c2ccccc2O)C(C)/C1=C(/C)NNC(=O)c1ccccc1O` (stereo not drawn), the TGI in the assay with KM20L2 colon is > 100 µM; with RXF-631 renal it was > 100 µM; in the assay on XF 498 CNS it was 85.9 µM.
For the compound `C=CCN=C1NC(=O)C(CC(=O)Nc2cccc(Cl)c2)S1` (stereo not drawn), the TGI in the assay on DMS 273 small cell lung, in the assay on HOP-18 NSCLC, in the assay with KM20L2 colon, in the assay with RXF-631 renal and in the assay with XF 498 CNS was > 100 µM in each case.
Consider `Cn1cnc(SC2=CC(=O)C=C3S[C@H]4C[C@@]23c2c(c(O)c3c5c2=NCCC=5C=N3)N4)c1CC(N)C(=O)O` (stereo partly drawn), for which the GI50 with DMS 273 small cell lung was 7.33 µM; in the assay with HS 578T breast it was 39.7 µM; with KM20L2 colon, 2.48 µM; in the assay on MDA-N, 2 µM; in the assay on NCI/ADR-RES ovarian, 23.7 µM; in the assay with XF 498 CNS it was 17.6 µM. The TGI in the assay on DMS 273 small cell lung worked out at 20.3 µM; in the assay with DU-145 prostate it was 32 µM; in the assay on HOP-18 NSCLC it was 30.7 µM; in the assay with HS 578T breast, 96.1 µM; with KM20L2 colon, 11.6 µM; with MDA-N, 3.63 µM. Also, the TGI with NCI/ADR-RES ovarian was found to be 56.7 µM; in the assay with XF 498 CNS, 31.4 µM.
Regarding `CC(=O)N(N=O)c1ccc(N(N=O)C(C)=O)cc1`, the TGI with DMS 273 small cell lung and in the assay on KM20L2 colon was > 100 µM throughout.
With `O=C(O)C(Cc1ccccc1)N=Cc1nc(-c2ccccc2)oc1O` (stereo not drawn), the TGI in the assay on DMS 273 small cell lung, in the assay with KM20L2 colon and with RXF-631 renal was > 100 µM each time.
As for `CC1CCCc2c1n[nH]c2CC1CC(=O)NC(=O)C1` (stereo not drawn), the TGI in the assay with DMS 273 small cell lung, with HOP-18 NSCLC, in the assay on KM20L2 colon, in the assay on RXF-631 renal and with XF 498 CNS was > 100 µM each time.
For `O=C(NC1CCCCC1)NC12CC3CC(CC(F)(C3)C1)C2`, the TGI in the assay on DMS 273 small cell lung, in the assay on KM20L2 colon, in the assay on RXF-631 renal and with XF 498 CNS was > 100 µM in each case.
In the case of `CCCCCCCCCCNC(=S)OC`, the TGI with DMS 273 small cell lung, in the assay on HOP-18 NSCLC, with KM20L2 colon and in the assay with RXF-631 renal was > 100 µM each time.
`C=CCC1(CN(C)C)CC/C(=C\c2cc(OC)c(OC)c(OC)c2)C1=O` (stereo not drawn): the TGI in the assay on HOP-18 NSCLC is > 100 µM; in the assay on KM20L2 colon, 44.4 µM; with RXF-631 renal, 60.9 µM.
Consider `Oc1ccc(O)c(-n2cccn2)c1`, for which the TGI with DMS 273 small cell lung, in the assay on KM20L2 colon, with RXF-631 renal and in the assay with XF 498 CNS was > 100 µM throughout.
As to `CCCC(=O)Oc1ccc(/C=N/NC(N)=S)nc1`, the TGI in the assay on DMS 273 small cell lung, in the assay with HOP-18 NSCLC and with KM20L2 colon was > 100 µM each time.
As for `NCCCNCc1c2ccccc2c(CNCCCN)c2ccccc12`, the TGI with HOP-18 NSCLC amounted to 75 µM; with KM20L2 colon, 53.4 µM.
As for `Cn1nc(-c2ccccc2)c2c(/C=C/c3ccc(F)cc3)onc2c1=O`, the TGI in the assay with DMS 273 small cell lung, in the assay on HOP-18 NSCLC, with KM20L2 colon and in the assay on XF 498 CNS was > 100 µM each time.
On to `CCCC[C@H](CCc1ccccc1)N(C(=O)OC)N1CCC[C@H]1COC`, for which the TGI with DMS 273 small cell lung turned out to be 35.6 µM; in the assay with HOP-18 NSCLC, 53.1 µM; with KM20L2 colon, 30.2 µM; with RXF-631 renal it was 32.4 µM; in the assay with XF 498 CNS, 28.5 µM.
For `C[N+]1(CCNP(=S)(NCC[N+]2(C)Cc3c(ccc4c3OCO4)C3C2c2cc4c(cc2C[C@@H]3O)OCO4)NCC[N+]2(C)Cc3c(ccc4c3OCO4)C3C2c2cc4c(cc2C[C@@H]3O)OCO4)Cc2c(ccc3c2OCO3)C2C1c1cc3c(cc1C[C@H]2O)OCO3` (stereo partly drawn), the TGI with DMS 273 small cell lung is < 0.00191 µM. The GI50 in the assay with HOP-18 NSCLC is 45.2 µM; with KM20L2 colon, 2.13 µM; with XF 498 CNS, 0.846 µM.
For the compound `Nc1ccc(C(=O)CC2(O)C(=O)Nc3ccccc32)cc1` (stereo not drawn), the TGI in the assay with DMS 273 small cell lung, in the assay on KM20L2 colon and in the assay with XF 498 CNS was > 100 µM in each case.
As to `Cc1ccc([N+](=O)[O-])cc1NC(=O)C(=O)Cc1nc2ccc(C(=O)c3ccccc3)cc2[nH]c1=O`, the TGI in the assay with DMS 273 small cell lung, with HOP-18 NSCLC, in the assay on KM20L2 colon, with RXF-631 renal and with XF 498 CNS was > 100 µM each time.
On to `Cc1ccccc1SC(/C=C/NNC1=NC(c2ccccc2)C(c2ccccc2)=NN1)c1ccccc1` (stereo not drawn), for which the TGI with DMS 273 small cell lung is > 100 µM; in the assay on KM20L2 colon it was > 100 µM; in the assay with XF 498 CNS, 60.4 µM.
As for `Clc1ccc(-c2nnc(-c3nn(-c4ccccc4)c4nc5ccccc5nc34)o2)cc1`, the TGI was > 100 µM in the assay with DMS 273 small cell lung, > 100 µM with HOP-18 NSCLC, > 100 µM with KM20L2 colon and 64.6 µM in the assay on XF 498 CNS.
Take `CCCCN(C)CC(C(C)=O)C(c1ccccc1)c1c(O)c2ccccc2oc1=O` (stereo not drawn): the TGI with DMS 273 small cell lung, in the assay on HOP-18 NSCLC, with KM20L2 colon and in the assay on XF 498 CNS was > 100 µM throughout.
As for `Oc1cccc2cccnc12`, the TGI in the assay on DMS 273 small cell lung is 7.98 µM; in the assay with DU-145 prostate, > 100 µM; in the assay with HOP-18 NSCLC, > 100 µM; with HS 578T breast it was > 100 µM; in the assay with MDA-N it was > 100 µM; in the assay with NCI/ADR-RES ovarian, 35.4 µM and > 100 µM and > 32 µM. Besides, the GI50 with DU-145 prostate is 20.9 µM and 68.8 µM and 18.2 µM; in the assay with HS 578T breast, > 100 µM.
As for `CC(C)(C)OC(=O)NC(Cc1ccccc1)C(=S)N1CCCC1` (stereo not drawn), the TGI with DMS 273 small cell lung, with HOP-18 NSCLC, with KM20L2 colon, in the assay with RXF-631 renal and in the assay with XF 498 CNS was > 100 µM throughout.
With `C/C(=N\NC(=O)c1ccccc1O)c1c(O)cc(C)oc1=O`, the TGI in the assay on HOP-18 NSCLC and in the assay with KM20L2 colon was > 100 µM throughout.
On to `Cn1c(=O)nc2n(-c3ccc(F)c(F)c3)c3ccccc3nc-2c1=O`, for which the TGI with DMS 273 small cell lung was 36.9 µM; in the assay on HOP-18 NSCLC, 97.7 µM; in the assay with KM20L2 colon, 23.8 µM; in the assay on RXF-631 renal it was 62.4 µM; with XF 498 CNS, 36.2 µM.
Take `Cc1ccc(NC(=O)C(=O)C2C(=O)NC(=O)NC2=O)c(C)c1`: the TGI with DMS 273 small cell lung, in the assay with HOP-18 NSCLC, in the assay on KM20L2 colon and in the assay with RXF-631 renal was > 100 µM throughout.
As for `COc1ccc2c(c1)c1ccc3c(c1n2C)C(=O)C=CC3=O`, the TGI with DMS 273 small cell lung is > 56.3 µM; in the assay on DU-145 prostate, 15 µM; in the assay on HOP-18 NSCLC, 24.7 µM; in the assay with HS 578T breast it was 28.1 µM; in the assay on KM20L2 colon, > 57.3 µM; with MDA-N, 24.1 µM. For the same compound, the TGI was 42.7 µM in the assay with NCI/ADR-RES ovarian, > 45.5 µM in the assay with RXF-631 renal and 32.1 µM with XF 498 CNS.
For the compound `COc1ccc(C2=NN(C(C)=O)c3nc4ccccc4nc3O2)cc1`, the TGI in the assay with DMS 273 small cell lung is > 100 µM; with HOP-18 NSCLC it was 88.9 µM; with RXF-631 renal it was > 100 µM; in the assay with XF 498 CNS it was 49.2 µM.
As for `NC1=C(O)/C(=N/NS(=O)(=O)c2ccccc2)C(c2ccc3c(c2)OCO3)O1` (stereo not drawn), the TGI in the assay with DMS 273 small cell lung, in the assay on HOP-18 NSCLC and in the assay on KM20L2 colon was > 100 µM each time.
